The target of assay [1] is T1, UL80.5 gene product/MCP interaction (Human cytomegalovirus, UniProt P16729).
T1 construct: Recombinant baculovirus Autographa californiica nuclear polyhedrosis virus expressing full-length CMV MCP; made in house; host or cells: Sf9 insect cells infected with recombinant baculovirus; crude clarified supernatant used for coating
The assay is described as follows: competitive binding assay (ELISA): inhibition of UL80.5 gene product/MCP interaction. Particulars: 0.1 μg of UL80.5 peptide; compound 0.4 to 50 μM; average of six independent experiments (FIG. 3); read-out: average IC50 (concentration at which binding is reduced by 50%). Also noted: species or system CMV. On the procedure:
Inhibitor activity was detected using a competitive binding assay. Scaffolding polypeptide and the compound to be tested are added sequentially or simultaneously to a microtiter plate precoated with full-length MCP. A primary antibody specific for the scaffolding polypeptide is then added, followed by a labeled secondary antibody directed against the primary antibody, and signal from the label measured. If the compound is unable to compete for binding, then the peptide binds to MCP and a signal is detected. […] In all assays a background control is included in which no peptide is added, but all other reagents are identical. In addition, a set of samples in which no compound is added is also included. This value is set at 100% and the percent inhibition is calculated relative to this number. […]
In order to determine if potential inhibitors of UL80.5 gene product/MCP interaction could be detected with this assay, compounds were assayed for activity.
In order to assay for inhibitors in a high throughput manner, the ELISA assay described above was modified. […] The plates were washed 6 times, and 50 μl of Wallac enhancement solution (Wallac; Gaithersburg, Md.) added, and the plate shaken for 10 minutes, before being read on a Wallac VICTOR microtiter plate reader (Wallac; Gaithersburg, Md.).

For a further assay, the target named is MCP protein (Human cytomegalovirus, UniProt P16729). The note with it: increasing concentrations of peptide (0.1 to 10 μg), FIG. 2.

Protocol for MCP protein: To investigate the interaction between the UL80.5 peptide and MCP, an ELISA assay was developed. For this purpose, a 96 well microtiter plate (Nunc—Immuno Maxisorp) was coated with 100 μl per well of a 1/50 dilution (in carbonate buffer: 40 mM NaCO3, 36 mM NaHCO3, 3mM Na Azide pH 9.6) of recombinant baculovirus supernatant containing MCP (prepared as described above). The plate was incubated at 37° C. for 2 hours. The plate was then washed 4-5 times in 200 μl per well of PBS (1.37 M NaCl, 80 mM Na2HPO4, 26.8 KCl, 14.7 mM KH2PO4, pH 7.0) containing 0.2 % Triton X-100, followed by incubation with 0.1 μg of UL80.5 peptide (SEQ ID NO:3) diluted in carbonate buffer for 1 hour at 37° C. The plate was then washed to remove any unbound peptide, and subsequent nonspecific binding blocked by the addition of 200 μl of 1% casein block (Pierce; Rockford, Ill.) 3 times for 30 seconds each at room temperature. The plate was washed as before, and 200 μl of a primary antipeptide antibody (prepared as described above) diluted 1/5000 in wash buffer (PBS containing 0.2% Triton X-100) was added and incubated for 1 hour at room temperature. […] Following a 30 minute room temperature incubation in the dark, the plate was read at 450 nm on a microtiter plate reader. […]

Regarding `NCCc1c[nH]c2ccc(-c3ccc4ccccc4c3)cc12` [Target compound 6], the IC50 in assay [1] is 4.2 µM.

For “NH2-Ala-Ser-Gln-Ser-Pro-Pro-Lys-Asp-Met-Val-Asp-Leu-Asn-Arg-Arg-Ile-Phe-Val-Ala-Ala-Leu-Asn-Lys-Leu-Glu-COOH [UL80.5 peptide]”, the “concentration of peptide at which 50% binding to MCP occurred” value at MCP protein worked out at 0.3 µg.
